Laboratory results as given in patent US5843696A, “Bioassay for toxic substances activated by metabolic enzyme system” (priority 1995, dated 1998).

Columns and labels:
[1] = tested on: ATP-driven reduction of NAD+ to NADH by submitochondrial particles; experiment: RET (reverse electron transfer) test linked to cytochrome P-450 liver microsome activation
From the text: The effect of this is to drive an endergonic reduction of NAD^+ to NADH as long as there is sufficient presence of ATP. For the process to be effective, therefore, there must be a sufficient quantity of NAD^+ in the sample preparation to serve as a substrate for conversion by competent enzymes. It may also be required that other enzymes such as glutamate, or alcohol or pyruvate dehydrogenases be added from exogenous sources in the event these materials are lost by rupture of the intact mitochondria during particle preparation.
For a reverse electron transport assay in which NAD^+ is to be reduced to NADH, one obvious requirement of the assay medium is NAD^+ to be a substrate. To supply a source of electrons, succinate is a preferred substrate which can be oxidized by the complex II enzymes. In order to couple the donor electrons from succinate conversion to NAD^+ reduction, it is necessary to block transport of the electron flow through complex III enzymes. This can be easily accomplished by adding antimycin, a known inhibitor of the complex III enzymes. With this combination, if the mitochondrial membranes and enzymes are otherwise functional, electrons would flow from coenzyme Q back through complex I enzymes to NAD^+. Thus NAD^+ would be reduced to NADH, as long as ATP was present to energize the conversion. Thus, the initiation of the reaction can be controlled by the timing of ATP addition.

[2] = tested on: NADH oxidation by SMP; type: biochemical, beef; settings: at the tested concentrations; no cytochrome P-450 enzymes
[3] = tested on: NADH oxidase activity of submitochondrial particles (enzyme complexes I, III, and IV); experiment: ETr (electron transfer) test linked to cytochrome P-450 liver microsome activation; settings: all tested concentrations; bovine serum albumin instead of microsomes

c1ccc2cc3ccccc3cc2c1 [anthracene]
inhibition in RET test, secondary controls lacking liver microsomes ([1]; 1 ppm, no liver microsomes): no inhibition

Brc1ccccc1 [bromobenzine]
inhibition relative to controls lacking the test compound ([1]; 69 ppm, microsomes from phenobarbital-induced rats): 68%
inhibition in controls containing the test compound but lacking microsomes ([1]; 69 ppm, no microsomes): 22%

ClC(Cl)(Cl)Cl [carbon tetrachloride]
inhibition in conventional ETr protocol [2]: no inhibition
inhibition of NADH oxidase activity, secondary control lacking liver microsomes [3]: 4%
